Reference: the NIST ThermoML archive (doi:10.1021/je060271a)

Conditions: 283.14 K, Liquid, Vibrating tube method

CCCCCCC(=O)OCC(COC(=O)CCCCCC)(COC(=O)CCCCCC)COC(=O)CCCCCC [pentaerythritol tetraheptanoate]
Conditions | mass density [kg/m3]
7084.7 kPa | 990
7096.9 kPa | 989.9
7109.5 kPa | 990
7124.4 kPa | 989.9
7137 kPa | 990
7149.8 kPa | 990
7165.1 kPa | 990
7178.1 kPa | 989.9
7190.7 kPa | 990
7203.7 kPa | 990
7219 kPa | 990
7232.1 kPa | 990
7244.9 kPa | 990.1
7258.2 kPa | 990.1
7273.8 kPa | 990.1
7287 kPa | 990
7300 kPa | 990.1
7315.9 kPa | 990.1
7329.2 kPa | 990
7342.5 kPa | 990.1
7355.8 kPa | 990
7372.2 kPa | 990.3
7385.8 kPa | 990.1
7399.3 kPa | 990.1
7413.1 kPa | 990.1
7429.3 kPa | 990.2
7442.8 kPa | 990.2
7456.9 kPa | 990.2
7471.1 kPa | 990.2
7487.7 kPa | 990.1
7501.3 kPa | 990.2
7515.3 kPa | 990.1
7532 kPa | 990.3
7546.5 kPa | 990.1
7561.7 kPa | 990.1
7576.2 kPa | 990.3
7590.2 kPa | 990.3
7604.7 kPa | 990.2
7622 kPa | 990.3
7636.1 kPa | 990.3
7651 kPa | 990.3
7668.2 kPa | 990.3
7682.9 kPa | 990.2
7697.4 kPa | 990.3
7715.2 kPa | 990.2
7729.3 kPa | 990.4
7744.5 kPa | 990.4
7760.2 kPa | 990.3
7775.4 kPa | 990.4
7793 kPa | 990.3
7808 kPa | 990.4
7823 kPa | 990.2
7841 kPa | 990.4
7855.8 kPa | 990.3
7871.2 kPa | 990.4
7889.8 kPa | 990.4
7904.8 kPa | 990.4
7920.5 kPa | 990.5
7939.2 kPa | 990.4
7955 kPa | 990.5
7970.7 kPa | 990.4
7986.3 kPa | 990.4
8005.3 kPa | 990.5
8020.9 kPa | 990.5
8039.9 kPa | 990.5
8056 kPa | 990.4
8071.5 kPa | 990.5
8091.2 kPa | 990.5
8107.4 kPa | 990.5
8123.4 kPa | 990.4
8140 kPa | 990.5
8156.7 kPa | 990.5
8176.8 kPa | 990.5
8193.5 kPa | 990.4
8210.2 kPa | 990.6
8226.8 kPa | 990.5
8246.8 kPa | 990.6
8263.9 kPa | 990.5
8280.8 kPa | 990.7
8301 kPa | 990.6
8317.9 kPa | 990.5
8338.2 kPa | 990.6
8355.3 kPa | 990.5
8372.7 kPa | 990.6
8393.6 kPa | 990.6
8411 kPa | 990.6
8428.8 kPa | 990.6
8446.4 kPa | 990.8
8467.8 kPa | 990.7
8485.5 kPa | 990.7
8503.5 kPa | 990.8
8524.7 kPa | 990.8
8542.8 kPa | 990.8
8560.9 kPa | 990.8
8578.8 kPa | 990.9
8601.1 kPa | 990.7
8619.5 kPa | 990.8
8638.2 kPa | 990.8
8660.8 kPa | 990.7
8679.6 kPa | 990.8
8698 kPa | 990.8
8716.6 kPa | 990.8
8739.2 kPa | 990.7
8758 kPa | 990.9
8777.1 kPa | 991
8800.4 kPa | 990.8
8820.1 kPa | 990.9
8839.6 kPa | 990.9
8863 kPa | 990.9
8882.8 kPa | 990.9
8902.7 kPa | 991
8923.2 kPa | 990.9
